Patent US20230092890A1, “1, 3, 4-Oxadiazole derivative compounds as histone deacetylase 6 inhibitor, and the pharmaceutical composition comprising the same” (Chong Kun Dang Pharmaceutical Corp., priority 2019, published 2023)
Where two headings read alike, the source gives them in different places.

Columns and labels:
[1] = target: T1, HDAC6 human recombinant (Homo sapiens, UniProt Q9UBN7); experiment: HDAC enzyme activity inhibition (in vitro), HDAC6 assay; format: biochemical
T1 construct: purchased Calbiochem 382180
T1 sequence (Q9UBN7 1-1215): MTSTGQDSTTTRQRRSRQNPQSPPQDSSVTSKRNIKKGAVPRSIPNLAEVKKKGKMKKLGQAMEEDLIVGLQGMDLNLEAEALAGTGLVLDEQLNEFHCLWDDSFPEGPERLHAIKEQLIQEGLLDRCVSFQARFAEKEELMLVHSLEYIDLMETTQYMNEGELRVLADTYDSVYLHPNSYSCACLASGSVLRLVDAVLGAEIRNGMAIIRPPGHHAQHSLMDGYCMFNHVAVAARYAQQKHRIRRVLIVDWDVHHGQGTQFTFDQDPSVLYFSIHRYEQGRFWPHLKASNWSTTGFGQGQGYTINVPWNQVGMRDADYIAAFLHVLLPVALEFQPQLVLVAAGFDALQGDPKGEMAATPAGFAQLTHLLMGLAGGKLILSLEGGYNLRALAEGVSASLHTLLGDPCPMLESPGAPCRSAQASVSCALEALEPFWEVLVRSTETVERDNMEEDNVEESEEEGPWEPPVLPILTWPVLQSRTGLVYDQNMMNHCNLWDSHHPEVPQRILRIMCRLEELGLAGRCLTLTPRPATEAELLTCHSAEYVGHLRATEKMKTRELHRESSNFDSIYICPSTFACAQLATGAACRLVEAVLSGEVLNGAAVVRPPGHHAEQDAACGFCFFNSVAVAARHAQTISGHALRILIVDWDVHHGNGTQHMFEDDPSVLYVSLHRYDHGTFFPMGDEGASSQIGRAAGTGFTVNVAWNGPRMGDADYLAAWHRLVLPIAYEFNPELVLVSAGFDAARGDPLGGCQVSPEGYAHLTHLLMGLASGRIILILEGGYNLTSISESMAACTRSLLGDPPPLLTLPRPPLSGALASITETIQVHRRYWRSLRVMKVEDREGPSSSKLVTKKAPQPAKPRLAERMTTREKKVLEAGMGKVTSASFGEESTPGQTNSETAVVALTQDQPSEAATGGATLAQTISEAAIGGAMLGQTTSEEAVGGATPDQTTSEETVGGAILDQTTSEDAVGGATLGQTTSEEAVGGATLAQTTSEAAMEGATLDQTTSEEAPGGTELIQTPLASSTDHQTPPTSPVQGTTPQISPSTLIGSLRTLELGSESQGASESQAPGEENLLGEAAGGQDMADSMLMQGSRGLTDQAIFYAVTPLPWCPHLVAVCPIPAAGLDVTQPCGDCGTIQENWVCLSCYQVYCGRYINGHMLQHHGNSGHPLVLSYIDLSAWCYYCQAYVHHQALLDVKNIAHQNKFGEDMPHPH
Method in brief: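 Fluorescence (Ex 390, Em 460) read after a 37° C, 60 min enzyme reaction and a further 30 min developer step at 37° C. Uses recombinant human HDAC6; HDAC1 arm dosed at 100, 1000, 10000 nM.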

[2] = target: T2, HDAC1 (Homo sapiens, UniProt Q13547); experiment: HDAC enzyme activity inhibition (in vitro), HDAC1 Fluorimetric Drug Discovery Assay Kit; format: biochemical
T2 construct: purchased Enzolifesciences BML-AK511
T2 sequence (Q13547 whole entry): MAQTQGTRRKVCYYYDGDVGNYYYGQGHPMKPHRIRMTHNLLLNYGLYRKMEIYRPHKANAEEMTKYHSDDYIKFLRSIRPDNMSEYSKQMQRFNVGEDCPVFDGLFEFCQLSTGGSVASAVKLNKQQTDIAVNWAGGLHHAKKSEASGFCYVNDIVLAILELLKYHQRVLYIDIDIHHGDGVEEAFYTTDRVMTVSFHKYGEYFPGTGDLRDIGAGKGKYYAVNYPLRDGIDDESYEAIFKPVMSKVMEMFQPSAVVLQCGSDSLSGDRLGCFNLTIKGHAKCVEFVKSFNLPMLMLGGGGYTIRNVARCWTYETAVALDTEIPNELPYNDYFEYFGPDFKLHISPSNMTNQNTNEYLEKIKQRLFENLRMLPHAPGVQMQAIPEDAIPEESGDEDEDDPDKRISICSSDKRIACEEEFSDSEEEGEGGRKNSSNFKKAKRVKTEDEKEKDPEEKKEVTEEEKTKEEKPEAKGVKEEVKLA
Method in brief: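 Fluorimetric read-out (Ex 390, Em 460) after a 60 min 37° C enzyme reaction and 30 min 37° C developer step. Tested levels: 0.1-1000 nM (0.1, 1, 10, 100, 1000) on recombinant human HDAC6; 100, 1000 and 10000 nM on HDAC1 kit enzyme.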

[3] = samples at 0.1, 1, 10, 100 and 1000 nM, 37° C. 60 minutes, fluorescence Ex 390, Em 460, read-out: HDAC6 IC50
[4] = samples at 100, 1000 and 10000 nM, 37° C. 60 minutes, fluorescence Ex 390, Em 460, read-out: HDAC1 IC50

IC50 [1, 3] [nM]	IC50 [2, 4] [nM]	SMILES	IC50 [1] [nM]	IC50 [2] [nM]
11	> 10000	Cn1c(=O)n(Cc2ccc(-c3nnc(C(F)F)o3)cn2)c2cc(F)c(-c3ccc(S(C)(=O)=O)cc3)cc21 [Compound 225, 1-((5-(5-(difluoromethyl)-1,3,4-oxadiazole-2-yl)pyridine-2-yl)methyl)-6-fluoro-3-methy 1-5-(4-(methylsulfonyl)phenyl)-1,3-dihydro-2H-benzo[d]imidazole-2-one]	–	–
32	> 10000	Cn1ccc2cc(-c3cc4c(cc3F)n(Cc3ccc(-c5nnc(C(F)F)o5)cn3)c(=O)n4C)ccc21 [Compound 227, 1-((5-(5-(difluoromethyl)-1,3,4-oxadiazole-2-yl)pyridine-2-yl)methyl)-6-fluoro-3-methy 1-5-(1-methyl-1H-indole-5-yl)-1,3-dihydro-2H-benzo[d]imidazole-2-one]	–	–
47	> 10000	O=c1oc2cc(Cl)c(Br)cc2n1Cc1ccc(-c2nnc(C(F)F)o2)cn1 [Compound 228, 5-bromo-6-chloro-3-((5-(5-(difluoromethyl)-1,3,4-oxadiazole-2-yl)pyridine-2-yl)methyl)benzo[d]oxazole-2(3H)-one]	–	–
312	> 10000	O=c1oc2cc(Cl)c(-c3cccnc3)cc2n1Cc1ccc(-c2nnc(C(F)F)o2)cn1 [Compound 229, 6-chloro-3-((5-(5-(difluoromethyl)-1,3,4-oxadiazole-2-yl)pyridine-2-yl)methyl)-5-(pyridine-3-yl)benzo[d]oxazole-2(3H)-one]	–	–
16	> 10000	O=c1sc2cc(Br)ccc2n1Cc1ccc(-c2nnc(C(F)F)o2)cn1 [Compound 230, 6-bromo-3-((5-(5-(difluoromethyl)-1,3,4-oxadiazole-2-yl)pyridine-2-yl)methyl)benzo[d]thiazole-2(3H)-one]	–	–
9	> 10000	O=c1sc2cc(-c3cccnc3)ccc2n1Cc1ccc(-c2nnc(C(F)F)o2)cn1 [Compound 231, 3-((5-(5-(difluoromethyl)-1,3,4-oxadiazole-2-yl)pyridine-2-yl)methyl)-6-(pyridine-3-yl) benzo[d]thiazole-2(3H)-one]	–	–
–	–	O=c1n(Cc2ccc(-c3nnc(C(F)F)o3)cn2)c2cc(Cl)ccc2n1C1CCN(CC(F)(F)C(F)(F)C(F)(F)F)CC1 [Compound 232, 5-chloro-3-((5-(5-(difluoromethyl)-1,3,4-oxadiazole-2-yl)pyridine-2-yl)methyl)-1-(1-(2,2,3,3,4,4,4-heptafluorobutyl)piperidine-4-yl)-1,3-dihydro-2H-benzo[d]imidazole-2-one]	643	> 10000
107	> 10000	CCC(F)(F)CN1CCC(n2c(=O)n(Cc3ccc(-c4nnc(C(F)F)o4)cn3)c3cc(Cl)ccc32)CC1 [Compound 233, 5-chloro-1-(1-(2,2-difluorobutyl)piperidine-4-yl)-3-((5-(5-(difluoromethyl)-1,3,4-oxadiazole-2-yl)pyridine-2-yl)methyl)-1,3-dihydro-2H-benzo[d]imidazole-2-one]	–	–
54	> 10000	CC(F)(F)CN1CCC(n2c(=O)n(Cc3ccc(-c4nnc(C(F)F)o4)cn3)c3cc(Cl)ccc32)CC1 [Compound 234, 5-chloro-3-((5-(5-(difluoromethyl)-1,3,4-oxadiazole-2-yl)pyridine-2-yl)methyl)-1-(1-(2,2-difluoropropyl)piperidine-4-yl)-1,3-dihydro-2H-benzo[d]imidazole-2-one]	–	–
103	> 10000	O=c1n(Cc2ccc(-c3nnc(C(F)F)o3)cn2)c2cc(Cl)ccc2n1C1CCN(CC(F)(F)C(F)F)CC1 [Compound 235, 5-chloro-3-((5-(5-(difluoromethyl)-1,3,4-oxadiazole-2-yl)pyridine-2-yl)methyl)-1-(1-(2,2,3,3-tetrafluoropropyl)piperidine-4-yl)-1,3-dihydro-2H-benzo[d]imidazole-2-one]	–	–
68	> 10000	O=c1n(Cc2ccc(-c3nnc(C(F)F)o3)cn2)c2cc(Cl)ccc2n1C1CCN(CC(F)(F)F)CC1 [Compound 236, 5-chloro-3-((5-(5-(difluoromethyl)-1,3,4-oxadiazole-2-yl)pyridine-2-yl)methyl)-1-(1-(2,2,2-trifluoroethyl)piperidine-4-yl)-1,3-dihydro-2H-benzo[d]imidazole-2-one]	–	–
1140	> 10000	CC(C)(C)OC(=O)n1ccc2cc(-c3ccc4c(c3)sc(=O)n4Cc3ccc(-c4nnc(C(F)F)o4)cn3)ccc21 [Compound 237, tert-butyl 5-(3-((5-(5-(difluoromethyl)-1,3,4-oxadiazole-2-yl)pyridine-2-yl)methyl)-2-oxo-2,3-dihydrobenzo[d]thiazole-6-yl)-1H-indole-1-carboxylate]	–	–
203	> 10000	CC(C)(C)OC(=O)N1CC=C(c2ccc3c(c2)sc(=O)n3Cc2ccc(-c3nnc(C(F)F)o3)cn2)CC1 [Compound 238, tert-butyl 4-(3-((5-(5-(difluoromethyl)-1,3,4-oxadiazole-2-yl)pyridine-2-yl)methyl)-2-oxo-2,3-dihydrobenzo[d]thiazole-6-yl)-3,6-dihydropyridine-1(2H)-carboxylate]	–	–
51	> 10000	O=c1n(Cc2ccc(-c3nnc(C(F)F)o3)cn2)c2cc(F)c(-c3cccc4[nH]ccc34)cc2n1C1CCN(CC(F)(F)F)CC1 [Compound 239, 1-((5-(5-(difluoromethyl)-1,3,4-oxadiazole-2-yl)pyridine-2-yl)methyl)-6-fluoro-5-(1H-indole-4-yl)-3-(1-(2,2,2-trifluoroethyl)piperidine-4-yl)-1,3-dihydro-2H-benzo[d]imidazole-2-one]	–	–
27	> 10000	O=c1n(Cc2ccc(-c3nnc(C(F)F)o3)cn2)c2cc(F)c(-c3cccnc3)cc2n1C1CCN(CC(F)(F)F)CC1 [Compound 240, 1-((5-(5-(difluoromethyl)-1,3,4-oxadiazole-2-yl)pyridine-2-yl)methyl)-6-fluoro-5-(pyridine-3-yl)-3-(1-(2,2,2-trifluoroethyl)piperidine-4-yl)-1,3-dihydro-2H-benzo[d]imidazole-2-one]	–	–
94	> 10000	O=c1n(Cc2ccc(-c3nnc(C(F)F)o3)cn2)c2cc(F)c(-c3cccc4[nH]ccc34)cc2n1C1CCN(CC(F)(F)C(F)F)CC1 [Compound 241, 1-((5-(5-(difluoromethyl)-1,3,4-oxadiazole-2-yl)pyridine-2-yl)methyl)-6-fluoro-5-(1H-indole-4-yl)-3-(1-(2,2,3,3-tetrafluoropropyl)piperidine-4-yl)-1,3-dihydro-2H-benzo[d]imidazole-2-one]	–	–
46	> 10000	O=c1n(Cc2ccc(-c3nnc(C(F)F)o3)cn2)c2cc(F)c(-c3cccnc3)cc2n1C1CCN(CC(F)(F)C(F)F)CC1 [Compound 242, 1-((5-(5-(difluoromethyl)-1,3,4-oxadiazole-2-yl)pyridine-2-yl)methyl)-6-fluoro-5-(pyridine-3-yl)-3-(1-(2,2,3,3-tetrafluoropropyl)piperidine-4-yl)-1,3-dihydro-2H-benzo[d]imidazole-2-one]	–	–
17	> 10000	O=C(CO)N1CCC(n2c(=O)n(Cc3ccc(-c4nnc(C(F)F)o4)cn3)c3cc(Cl)ccc32)CC1 [Compound 243, 5-chloro-3-((5-(5-(difluoromethyl)-1,3,4-oxadiazole-2-yl)pyridine-2-yl)methyl)-1-(1-(2-hydroxyacetyl)piperidine-4-yl)-1,3-dihydro-2H-benzo[d]imidazole-2-one]	–	–
